Tests used:
[1] = Sensory evaluation of sweetness (sweetening potency) relative to sucrose; settings: for Sweetness (sweetening potency): sensory evaluation; for sweetness potency: values compared to sweetening potency of a 4% aqueous solution of sucrose
Description: For example, the sweetness of N-[N-[3-(3-hydroxy-4-methoxyphenyl)-3-methylbutyl]-L-α-aspartyl]-L-phenylalanine 1-methyl ester was approximately 70000 times that of sugar, the sweetness of N-[N-[3-(3-methyl-4 hydroxyphenyl)-3-methylbutyl]-L-α-aspartyl]-L-phenylalanine 1-methyl ester was approximately 70000 times that of sugar, the sweetness of N-[N-[3-(3-hydroxy-4-methylphenyl)-3-methylbutyl]-L-α- aspartyl]-L-phenylalanine 1-methyl ester was approximately 60000 times that of sugar, and the sweetness of N-[N-((RS)-3-(3 hydroxy-4-methoxyphenyl) butyl]-L-α-aspartyl]-L-phenylalanine 1-methyl ester was approximately 50000 times that of sugar. […] Sensory evaluations can be performed as described in, for example, B. T. Carr, S. D. Pecore, K. M. Gibes and G. E. Dubois, “Sensory Methods for Sweetner Evaluation” in Flavor Measurement, edited by C. T. Ho and C. H. Manley, Marcel Decker, Inc. (1992).

physchem = assay type: physicochemical

half life in a buffer (physchem) [h] | Compound | Sweetness (sweetening potency) [1] | sweetness potency [1] | Sweetness (sweetening potency) ([1]; listed as Example 1)
43.6 | COC(=O)[C@H](Cc1ccccc1)NC(=O)[C@H](CC(=O)O)NCCC(C)(C)c1ccc(O)cc1 [Compound 8, N-[N-[3-(4-hydroxyphenyl)-3-methylbutyl]-L-α-aspartyl]-L-phenylalanine 1 methyl ester] | 25000 times the sweetness of sugar | 25000 | 
34.4 | COC(=O)[C@H](Cc1ccccc1)NC(=O)[C@H](CC(=O)O)NCCC(C)(C)c1ccc(O)c(OC)c1 [Compound 9, N-[N-[3-(3-methoxy-4-hydroxyphenyl)-3-methylbutyl]-L-α-aspartyl)-L-phenylalanine 1 methyl ester] | 40000 times the sweetness of sugar | 40000 | 
44.5 | COC(=O)[C@H](Cc1ccccc1)NC(=O)[C@H](CC(=O)O)NCCC(C)(C)c1ccc(OC)c(O)c1 [Compound 10, N-[N-[3-(3-hydroxy-4-methoxyphenyl)-3-methylbutyl]-L-α-aspartyl]-L-phenylalanine 1-methyl ester] |  | 70000 | 70000 times the sweetness of sugar

From patent US7238830B2, “N-alkylaspartyl dipeptide ester compounds” (Ajinomoto Co., Inc., priority 1998, dated 2007)
